Test results reported in patent US7414023B2, “Peptide ligands for prostate specific antigen” (Licentia Ltd., priority 2000, dated 2008).
Bridge positions count the residues as written; N and C are the ends. Peptide text beside a SMILES is read from it.

Tests used:
Set-up in all cases: PSA was purified from human seminal fluid as described previously (3); from tissue; host or cells: human seminal fluid
[1] = target: T1, PSA (Homo sapiens, UniProt P07288); assay: GST-peptide IFMA: binding of GST-peptides to PSA captured by MAb 5E4; details: for binding to PSA in GST-peptide IFMA (in words): GST fusion proteins; for Maximal binding (CPS): GST-peptide fusion proteins, Eu-labelled anti GST antibody as tracer
T1 sequence (P07288 25-261): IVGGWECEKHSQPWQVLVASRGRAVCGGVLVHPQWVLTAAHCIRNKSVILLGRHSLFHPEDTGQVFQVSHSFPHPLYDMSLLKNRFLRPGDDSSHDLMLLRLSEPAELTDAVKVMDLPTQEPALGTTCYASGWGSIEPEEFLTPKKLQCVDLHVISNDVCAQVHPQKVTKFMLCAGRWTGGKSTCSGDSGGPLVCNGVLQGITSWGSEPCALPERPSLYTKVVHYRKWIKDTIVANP
Experimental: After washing the binding of GST-peptide was quantified by IFMA using an Eu-labelled anti GST antibody as tracer. Data represent mean values from duplicate wells ±standard error (SE).
The solid phase antibodies used in the IFMAs were coated onto microtitration wells at a concentration of 5 μg/mL in TBS for 16 h at 22° C., the solution was discarded and the wells were saturated with 10 g/L bovine serum albumin in TBS for 3 h at 22° C. The antibodies used as tracers were labeled with a Eu^3+ chelate as described previously (26). The assay buffer was 50 mM Tris-HCL, pH 7.7, 150 mM NaCl, 33.3 μM bovine serum albumin, 1 μM bovine globulin.
The binding of individual phage clones to PSA was tested by IFMA (phage IFMA). In the phage IFMA, about 30 ng of PSA was added to MAb 5E4 coated wells for 1 h. After washing (Buffer: 150 mM NaCl, 7.7 mM NaN3, 0.2 g/L Tween 20), 15 μL of phage and 200 μl assay buffer was added. After incubation for 1 h, the wells were washed and filled with 200 μl of assay buffer containing 50 ng europium-labeled anti phage monoclonal antibody recognizing the M13 coat protein of the phage. After incubation for 60 min, the wells were washed 4 times, and enhancement solution (EG&G-Wallac) was added. The fluorescence was quantified with a 1234 DELFIA Research fluorometer (EG&G-Wallac). Binding of GST-peptide to PSA was determined by an IFMA (GST-peptide IFMA) similar to the one for phage peptides except that Eu^3+-labeled antibody to GST was used. Various amounts of GST-peptide or wild type GST were added to wells containing captured PSA in 200 μL of assay buffer and incubated for 1 h. To test the effect of Zn^2+ on the binding between GST-peptide and PSA, various concentrations of Zn^2+ (1-200 μM) were added to the buffer in the incubation step of GST-peptide and PSA. In competition experiments, GST-peptide (167 nM) or wild type GST were first incubated with increasing amounts of PSA (0-333 nM) in 0.5% BSA-TBS buffer for 60 min, then added to wells containing PSA captured by MAb 5E4. After incubation for 1 h the wells were washed and Eu^3+-labeled anti GST antibody was added. After further incubation and washing the bound fluorescence was measured as described above. When assessing the binding of the GST-peptides to other proteinases, including chymotrypsin, cathepsin G, trypsin, and kallikrein, these proteinases were captured by their specific antibodies coated to the microtitration well. Recombinant hK2 was captured by MAb 5E4, which is known to bind hK2 (24). For assessing the binding of the GST-peptides with complexes of PSA, including PSA-ACT and PSA-α1-protease inhibitor (PSA-API) (28), the complexes were captured by antibodies against ACT and API, respectively. After capturing the various proteinases or PSA complexes, GST-peptide was added and binding was monitored as described above for the GST-peptide IFMA.

[2] = target: T1, PSA; assay: Proteolytic cleavage of IGF-BP-3 by PSA, IGF-BP-3 IFMA; type: biochemical; details: PSA 5 μg/mL, 100-fold molar excess of synthetic peptide, IGF-BP-3 70 ng/mL, 16 h at 37° C.; PSA alone 30%
Experimental: The extent of the cleavage of the substrate was quantitated by monitoring the decrease in IGF-BP-3 immunoreactivity due to proteolytic cleavage of it. PSA (5 μg/mL) was incubated with IGF-BP-3 (70 ng/mL) for 16 h at 37° C. with 100-fold molar excess of peptides to PSA and measured for IGF-BP3 immunoreactivity by IFMA as described (33). As control, the peptide was also added to the reaction mixture containing PSA and IGF-BP3 just before starting the immunoassay to quantify the possible interference of the peptide in the IFMA for IGF-BP-3.
In the experiments, PSA (5 μg/mL) in TBS buffer, pH 7.8 alone or with 100-fold molar excess of peptide was incubated with IGF-BP-3 (70 ng/mL) for 16 h at 37° C., after which the concentration of intact IGF-BP-3 was determined by IFMA.

[3] = target: T1, PSA; assay: PSA activity measurements with modified peptides, substrate S-2586 (Example 5); type: biochemical; details: ratio of OD 405 nm of PSA-peptide to PSA alone after 60 minutes; ratio > 1.1 interpreted as active
Experimental: PSA activity measurements: The effect of different peptides on the activity of PSA was studied by using chymotrypsin substrate S-2586 (MeO-Suc-Arg-Pro-Tyr-pNA) (Chromogenix, Mölndal, Sweden). 77 pmoles (2 μg) of PSA, substrate and 10 μmoles of different peptides were incubated in Tris-buffer (10 mM Tris and 150 mM NaCl at pH 7.8) with 0.2 mM concentration of the substrate at room temperature. PSA reaction without any peptide was used as basic level control. Reaction was measured after 60 minutes incubation at […] using Multiscan RC photometer (Labsystems, Finland). The effect of the peptides was calculated as a ratio from the OD value of PSA-peptide complex to PSA alone after 60 minutes incubation.

Compound | binding to PSA in GST-peptide IFMA (in words) [1] | Maximal binding (CPS) [1] | cleavage of IGF-BP-3 by PSA in the presence of peptide [2] | PSA-peptide/PSA ratio [3]
CVFTSDYAFC [Peptide A-1] | less efficiently than C-4 | 219000 CPS | about 70% | 2.3
CC(C)C[C@@H]1NC(=O)[C@H](Cc2ccc(O)cc2)NC(=O)[C@H](CC(=O)O)NC(=O)[C@H](Cc2ccc(O)cc2)NC(=O)[C@H](CC(N)=O)NC(=O)[C@H](Cc2c[nH]cn2)NC(=O)[C@H](C)NC(=O)[C@H](Cc2ccccc2)NC(=O)[C@H](C(C)C)NC(=O)[C@@H](N)CSSC[C@@H](C(=O)O)NC(=O)[C@H](C(C)C)NC1=O [Peptide B-2] (H-CVFAHNYDYLVC-OH; disulfide 1-12; N-terminus assumed) | less efficiently than C-4 | 428000 CPS |  | 3.0
